Experimental data published in ChEMBL document CHEMBL1765025, “4-Aminothiazolyl analogues of GE2270 A: antibacterial lead finding” (2011).
In brackets after ≈: the same amount, converted by molar mass.

Columns and labels:
Assay type in all cases: functional
[1] = test system: Enterococcus faecium; assay: Antibacterial activity against Enterococcus faecium by CLSI M100-S19 method
[2] = test system: Staphylococcus aureus; assay: Antibacterial activity against methicillin-resistant Staphylococcus aureus by CLSI M100-S19 method
[3] = test system: Enterococcus; assay: Antibacterial activity against vancomycin-resistant Enterococcus
[4] = test system: Enterococcus faecalis; assay: Antibacterial activity against Enterococcus faecalis ATCC 29212 by CLSI M100-S19 method
[5] = test system: Streptococcus pyogenes; assay: Antibacterial activity against Streptococcus pyogenes ATCC BAA-595 by CLSI M100-S19 method
[6] = test system: Staphylococcus; assay: Antibacterial activity against methicillin-resistant Staphylococcus

Compound	MIC [1] [mg/L]	MIC [2] [mg/L]	MIC [3] [mg/L]	MIC [4] [mg/L]	MIC [5] [mg/L]	MIC [6] [mg/L]
CNC(=O)C[C@@H]1NC(=O)c2csc(n2)-c2ccc(-c3nc(C4=N[C@H](C(=O)N5CCC[C@H]5C(N)=O)CO4)cs3)nc2-c2csc(n2)-c2csc(n2)[C@H]([C@@H](O)c2ccccc2)NC(=O)CNC(=O)c2nc(sc2COC)[C@H](C(C)C)NC(=O)c2nc1sc2C	0.25 (≈ 0.194 µM)	0.25 (≈ 0.194 µM)	1 (≈ 0.775 µM)	0.5 (≈ 0.387 µM)	1 (≈ 0.775 µM)	1 (≈ 0.775 µM)
CNC(=O)C[C@@H]1NC(=O)c2csc(n2)-c2ccc(-c3nc(NC(=O)OC(C)(C)C)cs3)nc2-c2csc(n2)-c2csc(n2)[C@H]([C@@H](O)c2ccccc2)NC(=O)CNC(=O)c2nc(sc2COC)[C@H](C(C)C)NC(=O)c2nc1sc2C	> 32	> 32		> 32	> 32	
CNC(=O)C[C@@H]1NC(=O)c2csc(n2)-c2ccc(C(N)=O)nc2-c2csc(n2)-c2csc(n2)[C@H]([C@@H](O)c2ccccc2)NC(=O)CNC(=O)c2nc(sc2COC)[C@H](C(C)C)NC(=O)c2nc1sc2C	> 32	> 32		32 (≈ 30.7 µM)	> 32	
CNC(=O)C[C@@H]1NC(=O)c2csc(n2)-c2ccc(-c3nc(NC(C)=O)cs3)nc2-c2csc(n2)-c2csc(n2)[C@H]([C@@H](O)c2ccccc2)NC(=O)CNC(=O)c2nc(sc2COC)[C@H](C(C)C)NC(=O)c2nc1sc2C	1 (≈ 0.878 µM)	2 (≈ 1.76 µM)		1 (≈ 0.878 µM)	> 32	
CNC(=O)C[C@@H]1NC(=O)c2csc(n2)-c2ccc(-c3nc(NS(C)(=O)=O)cs3)nc2-c2csc(n2)-c2csc(n2)[C@H]([C@@H](O)c2ccccc2)NC(=O)CNC(=O)c2nc(sc2COC)[C@H](C(C)C)NC(=O)c2nc1sc2C	4 (≈ 3.41 µM)	2 (≈ 1.7 µM)		2 (≈ 1.7 µM)	> 32	
